What was measured:
Factor VII = test: In vivo drug efficacy: Factor VII protein level in plasma of mice after intravenous f7 siRNA preparations; conditions: Balb/c mice, 0.3 or 0.1 mg/kg in terms of siRNA, 48 hours after administration, f7 siRNA preparation, FIG. 4
Protocol: Each of the preparations obtained in Examples 10 and 11 (the compositions containing Compound I-6, I-1, I-7, or I-8, and the nucleic acid) was tested for evaluating the in vivo drug efficacy according to the following method. Incidentally, each preparation was used after it was diluted in accordance with the test.
After mice (Balb/c, obtained from CLEA Japan, Inc.) were housed and acclimated, each preparation was intravenously administered to mice at a dose of 0.3 or 0.1 mg/kg in terms of siRNA concentration. At 48 hours after the administration, blood was collected, and the collected blood was centrifuged at 8000 rpm for 8 minutes at 4° C. using a high speed refrigerated microcentrifuge (TOMY MX305, manufactured by Tomy Seiko Co., Ltd.). The Factor VII protein level in the thus obtained plasma sample was determined as follows. A BIOPHEN VII Kit (Cat. No. A221304, manufactured by ANIARA Company) was used, and according to the method described in the protocol attached to the kit, the absorbance was measured in a standard solution and in the plasma sample using ARVO (405 nm). On the basis of the obtained absorbance, a calibration curve was prepared, and the Factor VII protein level in the plasma was calculated. Incidentally, the number of mice in each group was set to 3.

[1] = Average particle diameter of the lipid nanoparticles in each preparation (Zetasizer Nano ZS); type: physicochemical
Text: Each sample was weighed so that the ratio of each of Compounds I-1 to I-5/1,2-dimyristoyl-sn-glycero-3-phosphoethanolamine-N-(methoxy(polyethylene glycol)-2000) sodium salt (PEG-DMPE Na, N-(carbonylmethoxypolyethylene glycol 2000)-1,2-dimyristoyl-sn-glycero-3-phosphoethanolamine sodium salt, manufactured by NOF Corporation)/disteazoylphosphatidyl choline (DSPC, 1,2-distearoyl-sn-glycero-3-phosphocholine, manufactured by NOF Corporation)/choiestercl (manufactured by NOF Corporation)=8.947/1.078/5.707/13.698 mmol/L, and dissolved in 90 vol % ethanol, whereby a solution containing the constituent components of a lipid membrane was prepared. Separately, apo-b siRNA in distilled water (24 mg/mL) was diluted with a Tris-EDTA buffer solution (200 mM Tris-HCl, 20 mM EDTA, manufactured by Invitrogen Co., Ltd.) and a 20 mM citric acid buffer solution (pH 5.0), whereby a 1.5 mg/mL apo-b siRNA aqueous solution (2 mM Tris-EDTA buffer solution, 20 mM citric acid buffer solution, pH 5.0) was prepared.
The obtained lipid solution was heated to 37° C., and a 500 μL portion was transferred to a container for preparing a preparation. The obtained apo-b siRNA aqueous solution (500 μL) was then added thereto while stirring. Then, a 20 mM citric acid buffer solution (containing 300 mM NaCl, pH 6.0, 1000 μL) was added to the obtained lipid nucleic acid mixed suspension (1000 μL) while stirring, and further, DPBS (manufactured by Invitrogen Co., Ltd., 3310 μL) was added dropwise thereto, whereby a crude preparation was obtained. The obtained crude preparation was concentrated by using Amicon Ultra (manufactured by Millipore Co., Ltd.), and further, the solvent was replaced with DPBS, and the resulting mixture was filtered through a 0.2-μm filter (manufactured by Toyo Roshi Kaisha, Ltd.) in a laminar flow cabinet. Further, the siRNA concentration in the obtained preparation was measured, and the preparation was diluted with DPBS so that the siRNA concentration was 0.3 mg/mL, whereby preparations (compositions containing any of Compounds I-1 to I-5, and the nucleic acid) were obtained.
The average particle diameter of the lipid nanoparticles in each preparation was measured using a particle diameter measurement device (Zetasizer Nano ZS, manufactured by Malvern).
Preparations were obtained in the same manner as in Example 9 except that Compounds I-1 to I-5 were changed to DLin-KC2-DMA synthesized by a modified method of the method described in WO2010/042877 and the compounds obtained in Reference Examples 5 to 7 (Compounds VII-1 to VII-3).
The average particle diameter of the lipid nanoparticles in each preparation was measured using a particle diameter measurement device.
Each sample was weighed so that the ratio of Compound I-6/PEG-DMPE Na (manufactured by NOF Corporation)/DSPC (manufactured by NOF Corporation)/cholesterol (manufactured by NOF Corporation)=3.532/0.270/1.156/2.401 mmol/L, and dissolved in 100 volt ethanol, whereby a solution containing the constituent components of a lipid membrane was prepared.
The obtained lipid solution was heated to 37° C., and an 800 μL portion was transferred to a container for preparing a preparation. The obtained f7 siRNA aqueous solution (800 μL) was then added thereto while stirring. Then, a 20 mM citric acid buffer solution (containing 300 mM NaCl, pH 6.0, 1600 μL) was added to the obtained lipid nucleic acid mixed suspension (1600 μL) while stirring, and further, DPBS (manufactured by Invitrogen Co., Ltd., […]) was added dropwise thereto, whereby a crude preparation was obtained. The obtained crude preparation was concentrated by using Amicon Ultra (manufactured by Millipore Co., Ltd.), and further, the solvent was replaced with DPBS, and the resulting mixture was filtered through a 0.45-μm filter (manufactured by Toyo Roshi Kaisha, Ltd.) in a laminar flow cabinet. […]

[2] = test system: apo-b gene mRNA in human liver cancer-derived cell line HepG2; test: Expression ratio of apo-b mRNA after introduction of preparations into HepG2 cells; type: cell-based; conditions: preparation with apo-b siRNA, nucleic acid 1 to 30 nM, 24 hours, FIG. 1
Text: Each of the preparations obtained in Example 9 (the compositions containing any of Compounds I-1, and I-3 to I-5, and the nucleic acid) and the preparations obtained in Comparative Example 1 (the compositions containing any of DLin-KC2-DMA and Compounds VII-1 to VII-3, and the nucleic acid) was introduced into cells of a human liver cancer-derived cell line HepG2 (HB-8065) by the following method.
Each preparation diluted with Opti-MEM (GIBCO Co., Ltd., 31985) so that the final concentration of the nucleic acid was 1 to 30 nM was dispensed in a 96-well culture plate at 20 μL/well. […]
By using the obtained cDNA as a template and also using a universal probe library (Roche Applied Science, Inc., 04683633001) as the probe and ABI7900HT Fast (manufactured by ABI, Inc.), a PCR reaction was performed according to the method described in the protocol attached thereto, so that the apo-b gene and D-glyceraldehyde-3-phosphate dehydrogenase (hereinafter, represented by “gapdh”) gene, which is a constitutively expressed gene, were subjected to the PCR reaction. Then, the amount of the amplified mRNA was measured for each gene, and aquasi-quantitative value of the apo-b mRNA was calculated using the amount of the amplified gapdh mRNA as the internal control. […]

[3] = preparations of Example 9: cationic lipid/PEG-DMPE Na/DSPC/cholesterol with apo-b siRNA
[4] = preparations of Examples 10 and 11: cationic lipid/PEG-DMPE Na/DSPC/cholesterol with f7 siRNA
[5] = preparations of Comparative Example 1, made as in Example 9, with apo-b siRNA

SMILES	Particle diameter of Preparation obtained [1, 3] [nm]	Particle diameter of Preparation obtained [1, 4] [nm]	Particle diameter of Preparation obtained [1, 5] [nm]	Factor VII protein level in the plasma (expression of the Factor VII gene) (Factor VII)	other results
CCCCC/C=C\C/C=C\CCCCCCCCN(CCCCCCCC/C=C\C/C=C\CCCCC)C(=O)OCCCN(C)C [Compound I-1, 3-(Dimethylamino)propyl di((9Z,12Z)-octadeca-9,12-dienyl)carbamate]	151.8	118.9	–	strongly suppressed	–
CCCCCCCC/C=C\CCCCCCCCN(CCCCCCCC/C=C\CCCCCCCC)C(=O)OCCCN(C)C [Compound I-2, 3-(Dimethylamino)propyl di((Z)-octadec-9-enyl)carbamate]	135.8	–	–	–	–
CCCCCC/C=C\CCCCCCCCN(CCCCCCCC/C=C\CCCCCC)C(=O)OCCCN(C)C [Compound I-3, 3-(Dimethylamino)propyl di((Z)-hexadec-9-enyl)carbamate]	150.0	–	–	–	–
CCCCC/C=C\C/C=C\CCCCCCCCCCN(CCCCCCCCCC/C=C\C/C=C\CCCCC)C(=O)OCCCN(C)C [Compound I-4, 3-(Dimethylamino)propyl di((11Z,14Z)-icosa-11,14-dienyl)carbamate]	159.0	–	–	–	–
CCCCC/C=C\C/C=C\CCCCCCCCN(CCCCCCCC/C=C\C/C=C\CCCCC)C(=O)OCCN(C)C [Compound I-5, 2-(Dimethylamino)ethyl di((9Z,12Z)-octadeca-9,2-dienyl)carbamate]	137.0	–	–	–	–
CCCCC/C=C\C/C=C\CCCCCCCCN(CCCCCCCC/C=C\C/C=C\CCCCC)C(=O)OCCC1CCCN1C (stereo not drawn) [Compound I-6, 2-(1-Methylpyrrolidin-2-yl)ethyl di((9Z,12Z)-octadeca-9,12-dienyl)carbamate]	–	121.1	–	strongly suppressed	–
CCCCC/C=C\C/C=C\CCCCCCCCN(CCCCCCCC/C=C\C/C=C\CCCCC)C(=O)OCCCN1CCCCC1 [Compound I-7, 3-(Piperidin-1-yl)propyl di((9Z,12Z)-octadeca-9,12-dienyl)carbamate]	–	131.8	–	strongly suppressed	–
CCCCC/C=C\C/C=C\CCCCCCCCN(CCCCCCCC/C=C\C/C=C\CCCCC)C(=O)OCCCN1CCCC1 [Compound I-8, 3-(Pyrrolidin-1-yl)propyl di((9Z,12Z)-octadeca-9,2-dienyl)carbamate]	–	121.6	–	strongly suppressed	–
CCCCC/C=C\C/C=C\CCCCCCCCC1(CCCCCCCC/C=C\C/C=C\CCCCC)OCC(CCN(C)C)O1 (stereo not drawn) [DLin-KC2-DMA, 2,2-dilinoleyl-4-(2-dimethylaminoethyl)-[1,3]-dioxolane, reference compound]	–	–	159.8	–	–

Further lines, with some results ahead:

Particle diameter of Preparation obtained [1, 3] [nm]	Particle diameter of Preparation obtained [1, 4] [nm]	Particle diameter of Preparation obtained [1, 5] [nm]	SMILES	Factor VII protein level in the plasma (expression of the Factor VII gene) (Factor VII)	other results
–	–	176.6	CCCCC/C=C\C/C=C\CCCCCCCCN(CCCCCCCC/C=C\C/C=C\CCCCC)C(=O)CCCCN [Compound VII-1, 5-Amino-N,N-di((9Z,12Z)-octadeca-9,12-dienyl)pentanamide, reference compound]	–	–
–	–	160.1	CCCCC/C=C\C/C=C\CCCCCCCCN(CCCCCCCC/C=C\C/C=C\CCCCC)C(=O)CCCCN(C)C [Compound VII-2, 5-(Dimethylamino)-N,N-di((9Z,12Z)-octadeca-9,12-dienyl)pentanamide, reference compound]	–	expression of the apo-b gene mRNA [2]: did not suppress the expression of the apo-b gene mRNA
–	–	177.7	CCCCC/C=C\C/C=C\CCCCCCCCN(CCCCCCCC/C=C\C/C=C\CCCCC)C(=O)OCCCN [Compound VII-3, 3-Aminopropyl di((9Z,12Z)-octadeca-9,12-dienyl)carbamate, reference compound]	–	–
